10 compounds from publication doi:10.1101/2024.08.19.608619, “Discovery of potent SARS-CoV-2 nsp3 macrodomain inhibitors uncovers lack of translation to cellular antiviral response” (bioRxiv, 2024) can be followed below.

For orientation: CC50 means the concentration that lowers cell viability or growth by half. The term EC50 denotes the concentration that produces a half-maximal response. By EC90 is commonly meant the concentration at which the effect reaches the 90% level.

Data set [1] is described as follows: Hepatic microsomal stability, MLM. It is filed as in vitro ADME.
Another data set in a line: in vitro. Particulars: human, hela-ace2 cells, 50.0.
A short description of data set [2]: Hepatic microsomal stability, HLM. In kind it is in vitro ADME, human. The following applies: In vitro human liver microsomal stability; for perc_remaining_no_cofactor: no cofactor. In general terms: Microsomes from liver hold many membrane-bound enzymes, among them those of drug oxidation.
The test system of another data set is HeLa-ACE2 cells. Particulars: for perc_max_measured: highest measured response of the dose series; for perc_min_measured: lowest measured response of the dose series.
Data set [3] relates to SARS-CoV-2, isolate USA-WA1/2020. Put plainly: microbe, parasite or virus in culture. In kind it is cell-based. Particulars: HeLa-ACE2 SARS-CoV-2 antiviral effect without P-gp inhibitor; for perc_max_measured: maximum measured response of dose series; for perc_min_measured: minimum measured response of dose series; for EC50: read-out: ec50; for EC90: read-out: ec90.
The nature of data set [4]: In vitro kinetic solubility. The following applies: In vitro kinetic solubility, ph 7.4.
Data set [5] in a line: Permeability Papp (AB) MDR1/MDCKII. The following applies: In vitro MDR1-MDCKII permeability; for papp_a_to_b_mean: A to B; for perc_recovery_a_to_b_mean: recovery A to B.
A further data set is described as follows: LogD. The following applies: pH 7.4; In vitro LogD.
Setting [6] is: In vitro mouse liver microsomal stability.
Setting [7] is: In vitro mouse liver microsomal stability, no cofactor.
Where [8] appears, read: protocol HeLa-ACE2 cytotoxicity.

Converted amounts (≈) assume the structure as drawn. Like-named read-outs stand apart in the source and are kept apart here.

In data set [1] (setting [6]), `CC(C)[C@@H](Nc1ncnc2[nH]c(-c3cnn(CC(=O)N(C)C)c3)cc12)c1ccc2c(c1)S(=O)(=O)CCC2` (racemic) [ASAP-0008668] registered a clint of 68.0 µL/min/mg, a perc_remaining of 31.0% and a t_half of 24.6 min. Besides, the perc_remaining_no_cofactor in data set [1] (In vitro mouse liver microsomal stability; no cofactor) is 92.0%. Also, the CC50 at 24 h in “in vitro” was above 20 µM. Also, in data set [2], the clint came out at 106.0 µL/min/mg, the perc_remaining was 18.0%, the t_half amounted to 15.8 min and the perc_remaining_no_cofactor was found to be 92.0%. In the data set on HeLa-ACE2 cells (HeLa-ACE2 cytotoxicity), this compound came in with a CC50 above 20 µM, a cc10 above 20.0 µM, a perc_max_measured of 99.837% and a perc_min_measured of 68.704%. Also, in data set [3], the perc_max_measured came to 98.615%, the perc_min_measured is recorded as 84.991%, the EC50 is above 20 µM and the concentration for an effect of 90% (EC90) was above 20 µM. In data set [4], this compound registered a solubility_mean of 38 µM (≈ 19.8 µg/mL). In data set [5] (mean), this compound registered a papp_a_to_b_mean of 0.67 ×10⁻⁶ cm/s and a perc_recovery_a_to_b_mean of 85.0%. The compound further had a logd in the data set “LogD” of 2.1.
In data set [1] (setting [6]), `Cc1nn(C)cc1-c1cc2c(N[C@H](c3ccc4c(c3)S(=O)(=O)CCC4)C(C)C)ncnc2[nH]1` (single isomer, unassigned) [ASAP-0011448] showed a clint of 390.0 µL/min/mg, a perc_remaining of 1.0% and a t_half of 4.3 min. Further, the perc_remaining_no_cofactor in data set [1] (setting [7]) worked out at 103.0%. For the same compound, in data set [2], the clint was 251.0 µL/min/mg, the perc_remaining stood at 2.0%, the t_half turned out to be 6.6 min and the perc_remaining_no_cofactor is on record as 116.0%. In the data set with HeLa-ACE2 cells (setting [8]), this compound came in with a CC50 above 20 µM, a cc10 above 20.0 µM, a perc_max_measured of 94.816% and a perc_min_measured of 77.647%. Besides, in data set [3], the perc_max_measured is 131.643%, the perc_min_measured was determined as 93.649%, the half-maximal effective concentration (EC50) is above 20 µM and the 90% effect concentration (EC90) was above 20 µM. The same compound returned a solubility_mean in data set [4] of 63 µM (≈ 29.3 µg/mL). In data set [5] (mean), this compound showed a papp_a_to_b_mean of 3.69 ×10⁻⁶ cm/s and a perc_recovery_a_to_b_mean of 77.9%. For the same compound, the logd in “LogD” turned out to be 3.4.
In data set [1] (setting [6]), `CCNC(=O)c1cc2c(N[C@H](c3ccc4c(c3)OCCO4)C(C)C)ncnc2[nH]1` (single isomer, unassigned) [ASAP-0013827] gave a clint of 72.0 µL/min/mg, a perc_remaining of 29.0% and a t_half of 23.2 min. Further, the perc_remaining_no_cofactor in data set [1] (setting [7]) was found to be 92.0%. In data set [2], the clint is 1329.0 µL/min/mg, the perc_remaining is on record as 1.0%, the t_half is listed as 1.3 min and the perc_remaining_no_cofactor was found to be 97.0%. In the data set on HeLa-ACE2 cells (HeLa-ACE2 cytotoxicity), this compound had a perc_max_measured of 106.128% and a perc_min_measured of 83.696%. Also, in data set [3], the perc_max_measured amounted to 113.12%, the perc_min_measured stood at 80.543%, the 50% effective concentration (EC50) was above 20 µM and the EC90 is above 20 µM. The solubility_mean in data set [4] was 13 µM (≈ 5.14 µg/mL). Besides, in data set [5] (no inhibitor), the papp_a_to_b_mean worked out at 2.9 ×10⁻⁶ cm/s and the perc_recovery_a_to_b_mean was determined as 81.7%. Also, in the data set “LogD”, the logd came to 3.6.
On to `CCNC(=O)c1cc2c(N[C@H](c3ccc4c(c3)S(=O)(=O)CCC4)C(C)C)ncnc2[nH]1` [ASAP-0012325], for which, in data set [1] (setting [6]), the clint came to 64.0 µL/min/mg, the perc_remaining is 34.0% and the t_half came to 26.3 min. Also, the perc_remaining_no_cofactor in data set [1] (setting [7]) was found to be 97.0%. Moreover, in data set [2], the clint turned out to be 109.0 µL/min/mg, the perc_remaining amounted to 17.0%, the t_half is 15.4 min and the perc_remaining_no_cofactor was found to be 102.0%. In addition, the solubility_mean in data set [4] amounted to 337 µM (≈ 149 µg/mL). In data set [5] (no inhibitor), the papp_a_to_b_mean stood at 0.717 ×10⁻⁶ cm/s and the perc_recovery_a_to_b_mean stood at 88.3%. This compound also returned a logd in the data set “LogD” of 2.7.
On to `CC(C)[C@H](Nc1ncnc2[nH]c(C(=O)N[C@H]3CCN(C)C3)cc12)c1ccc2c(c1)S(=O)(=O)CCC2` [ASAP-0012334], for which, in data set [1] (setting [6]), the clint worked out at 1.0 µL/min/mg, the perc_remaining was determined as 98.0% and the t_half was 1540.5 min. Further, the perc_remaining_no_cofactor in data set [1] (setting [7]) was found to be 97.0%. For the same compound, in data set [2], the clint is 11.0 µL/min/mg, the perc_remaining was found to be 80.0%, the t_half is on record as 149.8 min and the perc_remaining_no_cofactor is reported as 98.0%. The solubility_mean in data set [4] amounted to 396 µM (≈ 197 µg/mL). In data set [5] (no inhibitor), this compound gave a papp_a_to_b_mean of 0.175 ×10⁻⁶ cm/s and a perc_recovery_a_to_b_mean of 89.9%. Moreover, in “LogD”, the logd amounted to 1.4.
Regarding `CC(C)[C@H](Nc1ncnc2[nH]c(-c3cnn(CC(=O)N(C)C)c3)cc12)c1ccc2c(c1)S(=O)(=O)CCC2` [ASAP-0013744], in data set [1] (setting [6]), the clint was 124.0 µL/min/mg, the perc_remaining is 13.0% and the t_half is on record as 13.5 min. For the same compound, in data set [1] (setting [7]), the perc_remaining_no_cofactor was found to be 98.0%. In data set [2], the clint is 92.0 µL/min/mg, the perc_remaining turned out to be 22.0%, the t_half stood at 18.1 min and the perc_remaining_no_cofactor worked out at 97.0%. In data set [4], this compound had a solubility_mean of 361 µM (≈ 188 µg/mL). In data set [5] (no inhibitor), the papp_a_to_b_mean was 1.17 ×10⁻⁶ cm/s and the perc_recovery_a_to_b_mean was 116.0%. Besides, the logd in “LogD” is on record as 2.2.
In data set [1] (setting [6]), `CC(C)[C@@H](Nc1ncnc2[nH]c(-c3cnn(CC(=O)N(C)C)c3)cc12)c1ccc2c(c1)S(=O)(=O)CCC2` [ASAP-0013747] registered a clint of 31.0 µL/min/mg, a perc_remaining of 59.0% and a t_half of 53.8 min. Besides, the perc_remaining_no_cofactor in data set [1] (setting [7]) is given as 102.0%. In data set [2], the clint is 297.0 µL/min/mg, the perc_remaining is recorded as 1.0%, the t_half was found to be 5.6 min and the perc_remaining_no_cofactor came to 99.0%. The solubility_mean in data set [4] is 256 µM (≈ 134 µg/mL). Besides, in data set [5] (no inhibitor), the papp_a_to_b_mean worked out at 0.555 ×10⁻⁶ cm/s and the perc_recovery_a_to_b_mean is recorded as 78.8%. This compound also came in with a logd in “LogD” of 2.2.
In the case of `CCNC(=O)c1cc2c(N[C@H](c3ccc4c(c3)OCCO4)C(C)C)ncnc2[nH]1` [ASAP-0013824], in data set [1] (setting [6]), the clint was determined as 48.0 µL/min/mg, the perc_remaining is given as 47.0% and the t_half came to 34.6 min. In addition, the perc_remaining_no_cofactor in data set [1] (setting [7]) was found to be 94.0%. In data set [2], the clint came out at 67.0 µL/min/mg, the perc_remaining came to 32.0%, the t_half is recorded as 24.8 min and the perc_remaining_no_cofactor amounted to 100.0%. In the data set on HeLa-ACE2 cells (HeLa-ACE2 cytotoxicity), the half-maximal cytotoxic concentration (CC50) was above 20 µM, the cc10 was above 20.0 µM, the perc_max_measured turned out to be 99.37% and the perc_min_measured was 90.423%. In addition, in data set [3], the perc_max_measured came out at 109.949%, the perc_min_measured is given as 49.504%, the EC50 is 19.7 µM and the 90% effect concentration (EC90) is above 20 µM. The solubility_mean in data set [4] worked out at 263 µM (≈ 104 µg/mL). In data set [5] (no inhibitor), this compound yielded a papp_a_to_b_mean of 2.7 ×10⁻⁶ cm/s and a perc_recovery_a_to_b_mean of 94.3%. Also, the logd in “LogD” was 3.6.
In turn, `C[C@@H](C(=O)O)[C@H](NC(=O)c1ncnc2[nH]ccc12)c1ccc(Br)cc1` [ASAP-0014726] came in with a CC50 at 24 h in the data set “in vitro” above 20 µM. Moreover, in the data set with HeLa-ACE2 cells (HeLa-ACE2 cytotoxicity), the CC50 was above 20 µM, the cc10 is above 20.0 µM, the perc_max_measured was 106.212% and the perc_min_measured is 72.067%. In data set [3], the perc_max_measured came out at 129.968% and the perc_min_measured was 44.709%.
Regarding `COc1ccc([C@@H](Cc2nnn[nH]2)NC(=O)c2ncnc3[nH]ccc23)cc1` [ASAP-0015384], in “in vitro”, the CC50 at 24 h was above 20 µM. In the data set on HeLa-ACE2 cells (HeLa-ACE2 cytotoxicity), this compound came in with a CC50 above 20 µM, a cc10 above 20.0 µM, a perc_max_measured of 99.805% and a perc_min_measured of 83.484%. For the same compound, in data set [3], the perc_max_measured was determined as 136.92%, the perc_min_measured is listed as 93.837%, the concentration for a half-maximal effect (EC50) was above 20 µM and the EC90 is above 20 µM.
